# Laboratory results taken from ChEMBL document CHEMBL4000224, “Cadiolides J-M, antibacterial polyphenyl butenolides from the Korean tunicate Pseudodistoma antinboja” (2017).
# The source made the active and inactive calls. The calls are words filed in the database; no cut-off is given here.
# Tests used:
# Type in all cases: functional
# Staphylococcus aureus [1] = assay: Anti-bacterial activity against methicillin-susceptible Staphylococcus aureus CCARM 3640 by 2-fold microtiter broth dilution method
# Staphylococcus aureus [2] = assay: Anti-bacterial activity against methicillin-resistant Staphylococcus aureus CCARM 3635 by 2-fold microtiter broth dilution method
# Staphylococcus aureus [3] = assay: Anti-bacterial activity against methicillin-susceptible Staphylococcus aureus CCARM 0027 by 2-fold microtiter broth dilution method
# Staphylococcus aureus [4] = assay: Anti-bacterial activity against methicillin-resistant Staphylococcus aureus CCARM 3089 by 2-fold microtiter broth dilution method
# Staphylococcus aureus [5] = assay: Anti-bacterial activity against methicillin-susceptible Staphylococcus aureus CCARM 0204 by 2-fold microtiter broth dilution method
# Staphylococcus aureus [6] = assay: Anti-bacterial activity against methicillin-resistant Staphylococcus aureus CCARM 3634 by 2-fold microtiter broth dilution method
# Staphylococcus aureus [7] = assay: Anti-bacterial activity against methicillin-resistant Staphylococcus aureus CCARM 3090 by 2-fold microtiter broth dilution method
# Staphylococcus aureus [8] = assay: Anti-bacterial activity against methicillin-susceptible Staphylococcus aureus CCARM 0205 by 2-fold microtiter broth dilution method
# Escherichia coli = assay: Anti-bacterial activity against Escherichia coli ATCC 11775 by 2-fold microtiter broth dilution method; conditions: DSM 30083 = JCM 1649 = ATCC 11775
# Salmonella typhimurium = assay: Anti-bacterial activity against Salmonella typhimurium ATCC 14028 by 2-fold microtiter broth dilution method; conditions: Salmonella enterica subsp. enterica serovar Typhimurium
# Klebsiella pneumoniae = assay: Anti-bacterial activity against Klebsiella pneumoniae ATCC 4352 by 2-fold microtiter broth dilution method
SMILES,MIC (Staphylococcus aureus [1]) [µg/mL],MIC (Staphylococcus aureus [2]) [µg/mL],MIC (Staphylococcus aureus [3]) [µg/mL],MIC (Staphylococcus aureus [4]) [µg/mL],MIC (Staphylococcus aureus [5]) [µg/mL],MIC (Staphylococcus aureus [6]) [µg/mL],MIC (Staphylococcus aureus [7]) [µg/mL],MIC (Staphylococcus aureus [8]) [µg/mL],Activity (Escherichia coli),Activity (Salmonella typhimurium),Activity (Klebsiella pneumoniae)
CCCCCCCCCC(=O)N[C@@H](Cc1c[nH]c2ccccc12)C(=O)N[C@@H](CC(N)=O)C(=O)N[C@@H](CC(=O)O)C(=O)N[C@@H]1C(=O)NCC(=O)N[C@@H](CCCN)C(=O)N[C@@H](CC(=O)O)C(=O)N[C@H](C)C(=O)N[C@@H](CC(=O)O)C(=O)NCC(=O)N[C@H](CO)C(=O)N[C@@H]([C@H](C)CC(=O)O)C(=O)N[C@@H](CC(=O)c2ccccc2N)C(=O)O[C@@H]1C [DAPTOMYCIN],16,> 32,16,> 32,4,> 32,> 32,2,–,–,–
COc1ccc(C=C2OC(=O)C([C@@H](O)c3cc(Br)c(OC)c(Br)c3)=C2c2cc(Br)c(O)c(Br)c2)cc1Br,4,4,4,8,4,4,4,2,inactive,inactive,inactive
COc1c(Br)cc([C@H](O)C2=C(c3cc(Br)c(O)c(Br)c3)/C(=C/c3ccc(O)c(Br)c3)OC2=O)cc1Br,1,1,1,2,1,2,2,0.5,inactive,inactive,inactive
CN[C@H](CC(C)C)C(=O)N[C@H]1C(=O)N[C@@H](CC(N)=O)C(=O)N[C@H]2C(=O)N[C@H]3C(=O)N[C@H](C(=O)N[C@H](C(=O)O)c4cc(O)cc(O)c4-c4cc3ccc4O)[C@H](O)c3ccc(c(Cl)c3)Oc3cc2cc(c3O[C@@H]2O[C@H](CO)[C@@H](O)[C@H](O)[C@H]2O[C@H]2C[C@](C)(N)[C@H](O)[C@H](C)O2)Oc2ccc(cc2Cl)[C@H]1O [VANCOMYCIN],0.25,–,–,–,0.25,–,–,< 0.13,–,–,–
O=C1O/C(=C\c2cc(Br)c(O)c(Br)c2)C(c2cc(Br)c(O)c(Br)c2)=C1[C@@H](O)c1cc(Br)c(O)c(Br)c1,1,1,2,1,1,1,1,1,inactive,inactive,inactive
COc1ccc(C=C2OC(=O)C([C@@H](O)c3cc(Br)c(OC)c(Br)c3)=C2c2cc(Br)c(O)c(Br)c2)cc1,8,4,4,4,4,4,8,4,inactive,inactive,inactive
COc1c(Br)cc([C@H](O)C2=C(c3ccc(O)c(Br)c3)/C(=C/c3cc(Br)c(O)c(Br)c3)OC2=O)cc1Br,4,4,4,4,2,4,4,2,inactive,inactive,inactive
C[C@]12C[C@@]34C=CC(=O)[C@@](C)(CCC(=O)Nc5c(O)ccc(C(=O)O)c5O)[C@@H]3[C@H](C[C@@H]1C4)O2,8,8,4,8,4,8,8,4,–,–,–
